According to PMC4138887, “Natural Product Polyamines That Inhibit Human Carbonic Anhydrases” (BioMed Research International, 2014):
≈ marks a conversion by molar mass, not a printed value.

What was measured:
hCA I = biological target: T1, hCA I (Homo sapiens, UniProt P00915); assay: stopped-flow CO2 hydration CA inhibition assay; type: biochemical; settings: recombinant human CA I; stopped-flow CO2 hydrase assay; errors ±5%, three determinations; read-out: K i CA I
T1 construct: made in house; host or cells: E. coli
T1 sequence (P00915 whole entry): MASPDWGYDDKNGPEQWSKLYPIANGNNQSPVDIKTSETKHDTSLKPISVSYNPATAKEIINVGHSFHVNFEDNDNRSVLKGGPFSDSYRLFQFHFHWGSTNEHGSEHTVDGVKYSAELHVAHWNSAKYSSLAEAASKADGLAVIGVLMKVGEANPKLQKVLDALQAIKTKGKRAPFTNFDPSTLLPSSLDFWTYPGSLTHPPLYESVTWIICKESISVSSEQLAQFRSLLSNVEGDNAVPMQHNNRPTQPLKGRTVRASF
From the text: (§1) An Applied Photophysics stopped-flow instrument was used for assaying the CA-catalyzed CO2 hydration activity [26]. IC50 values were obtained from dose response curves working at seven different concentrations of test compound; by fitting the curves using PRISM (http://www.graphpad.com/) and nonlinear least squares methods, values represent the mean of at least three different determinations as described by us previously [27]. The inhibition constants (K i) were then derived by using the Cheng-Prusoff equation [28] as follows: K i = IC50/(1 + [S]/K m), where [S] represents the CO2 concentration at which the measurement was carried out and K m is the concentration of substrate at which the enzyme activity is at half maximal. All enzymes used were recombinant, produced in E. coli as reported earlier [29, 30].

hCA II = biological target: T2, hCA II (Homo sapiens, UniProt P00918); assay: stopped-flow CO2 hydration CA inhibition assay; type: biochemical; settings: recombinant human CA II; stopped-flow CO2 hydrase assay; errors ±5%, three determinations; read-out: K i CA II
T2 construct: made in house; host or cells: E. coli
From the text: as §1

hCA IV = biological target: T3, hCA IV (Homo sapiens, UniProt P22748); assay: stopped-flow CO2 hydration CA inhibition assay; type: biochemical; settings: recombinant human CA IV; stopped-flow CO2 hydrase assay; errors ±5%, three determinations; read-out: K i CA IV
T3 construct: made in house; host or cells: E. coli
T3 sequence (P22748 19-312): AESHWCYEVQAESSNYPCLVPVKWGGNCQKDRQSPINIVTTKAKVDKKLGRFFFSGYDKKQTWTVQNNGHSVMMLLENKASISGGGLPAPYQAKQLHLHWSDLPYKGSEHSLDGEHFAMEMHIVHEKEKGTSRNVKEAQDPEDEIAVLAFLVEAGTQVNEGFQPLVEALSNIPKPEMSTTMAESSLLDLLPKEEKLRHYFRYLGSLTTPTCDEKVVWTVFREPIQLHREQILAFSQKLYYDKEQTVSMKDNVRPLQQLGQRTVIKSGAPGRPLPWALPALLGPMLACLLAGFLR
From the text: as §1

hCA IX = biological target: T4, hCA IX (Homo sapiens, UniProt Q16790); assay: stopped-flow CO2 hydration CA inhibition assay; type: biochemical; settings: recombinant human CA IX; stopped-flow CO2 hydrase assay; errors ±5%, three determinations; read-out: K i CA IX
T4 construct: made in house; host or cells: E. coli
From the text: as §1

hCA XII = biological target: T5, hCA XII (Homo sapiens, UniProt O43570); assay: stopped-flow CO2 hydration CA inhibition assay; type: biochemical; settings: recombinant human CA XII; stopped-flow CO2 hydrase assay; errors ±5%, three determinations; read-out: K i CA XII
T5 construct: made in house; host or cells: E. coli
T5 sequence (O43570 25-354): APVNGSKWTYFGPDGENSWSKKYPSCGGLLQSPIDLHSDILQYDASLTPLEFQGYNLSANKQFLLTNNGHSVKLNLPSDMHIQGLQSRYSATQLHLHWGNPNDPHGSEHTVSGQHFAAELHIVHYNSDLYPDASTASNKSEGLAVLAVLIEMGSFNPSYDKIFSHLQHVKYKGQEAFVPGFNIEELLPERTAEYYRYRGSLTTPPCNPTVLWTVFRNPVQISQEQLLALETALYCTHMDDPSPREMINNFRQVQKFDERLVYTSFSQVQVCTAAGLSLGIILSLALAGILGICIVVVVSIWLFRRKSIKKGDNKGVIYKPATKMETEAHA
From the text: as §1

hCA XIV = biological target: T6, hCA XIV (Homo sapiens, UniProt Q9ULX7); assay: stopped-flow CO2 hydration CA inhibition assay; type: biochemical; settings: recombinant human CA XIV; stopped-flow CO2 hydrase assay; errors ±5%, three determinations; read-out: K i CA XIV
T6 construct: made in house; host or cells: E. coli
T6 sequence (Q9ULX7 16-337): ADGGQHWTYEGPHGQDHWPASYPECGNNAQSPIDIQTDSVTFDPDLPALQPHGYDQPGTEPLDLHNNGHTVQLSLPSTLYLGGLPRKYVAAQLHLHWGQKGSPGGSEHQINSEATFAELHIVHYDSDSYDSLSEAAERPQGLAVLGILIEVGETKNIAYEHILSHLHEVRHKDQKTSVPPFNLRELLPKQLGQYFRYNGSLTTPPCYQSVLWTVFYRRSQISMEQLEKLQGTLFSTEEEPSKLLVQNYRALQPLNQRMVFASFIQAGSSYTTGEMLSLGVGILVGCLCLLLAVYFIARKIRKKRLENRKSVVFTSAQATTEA
From the text: An Applied Photophysics stopped-flow instrument was used for assaying the CA-catalyzed CO2 hydration activity [26]. IC50 values were obtained from dose response curves working at seven different concentrations of test compound; by fitting the curves using PRISM (http://www.graphpad.com/) and nonlinear least squares methods, values represent the mean of at least three different determinations as described by us previously [27]. The inhibition constants (K i) were then derived by using the Cheng-Prusoff equation [28] as follows: K i = IC50/(1 + [S]/K m), where [S] represents the CO2 concentration at which the measurement was carried out and K m is the concentration of substrate at which the enzyme activity is at half maximal.

[1] = tested on: drug sensitive Plasmodium falciparum parasite line (3D7); set-up: method as in earlier work; settings: drug sensitive parasite line 3D7; read-out: IC50 towards Plasmodium falciparum 3D7; cited from earlier work
Pseudomonas aeruginosa = tested on: Pseudomonas aeruginosa; set-up: method as in PMID 22515429; settings: antibacterial, cited from earlier work

Compound | Ki (hCA I) [µM] | Ki (hCA II) [µM] | Ki (hCA IV) [µM] | Ki (hCA IX) [µM] | Ki (hCA XII) [µM] | Ki (hCA XIV) [µM] | IC50 [1] [µM] | MIC against Pseudomonas aeruginosa (Pseudomonas aeruginosa) [µM] | IC50 (Pseudomonas aeruginosa; read-out: IC50 against Pseudomonas aeruginosa) [µM]
COc1c(Br)cc(/C=C/C(=O)NCCCNCCCCN)cc1Br [Polyamine 2, ianthelliformisamine B] | 0.77 | 0.37 | 9.1 | 0.35 | 3.48 | 2.28 | – | – | –
spermatinamine [Polyamine 4] | 0.85 | 0.48 | > 20 | 0.34 | > 20 | 2.72 | 0.23 | – | –
O=C(NCCCCNCCCNC(=O)c1ccc(O)c(O)c1)c1ccc(O)c(O)c1 [Polyamine 5, pistillarin] | 0.79 | 0.34 | 7.03 | 0.36 | 4.21 | 1.52 | 1.9 | – | –

Second part, led by results:

Ki (hCA I) [µM] | Ki (hCA II) [µM] | Ki (hCA IV) [µM] | Ki (hCA IX) [µM] | Ki (hCA XII) [µM] | Ki (hCA XIV) [µM] | Compound | IC50 [1] [µM] | MIC against Pseudomonas aeruginosa (Pseudomonas aeruginosa) [µM] | IC50 (Pseudomonas aeruginosa; read-out: IC50 against Pseudomonas aeruginosa) [µM]
0.86 | 0.35 | 9.08 | 0.27 | 3.5 | 6.96 | COc1c(Br)cc(/C=C/C(=O)NCCCNCCCCNCCCNC(=O)/C=C/c2cc(Br)c(OC)c(Br)c2)cc1Br [Polyamine 3, ianthelliformisamine C] | – | – | –
1.76 | 0.41 | 6.72 | 0.2 | 2.81 | 2.12 | COc1c(Br)cc(/C=C/C(=O)NCCCNCCCCNCCCN)cc1Br [Polyamine 1, ianthelliformisamine A] | – | 35 (≈ 18.2 µg/mL) | 6.8
